Biological target: T1, MGS0156 (uncultured organism, UniProt A0A0G3FEJ8)
T1 sequence (A0A0G3FEJ8 75-421): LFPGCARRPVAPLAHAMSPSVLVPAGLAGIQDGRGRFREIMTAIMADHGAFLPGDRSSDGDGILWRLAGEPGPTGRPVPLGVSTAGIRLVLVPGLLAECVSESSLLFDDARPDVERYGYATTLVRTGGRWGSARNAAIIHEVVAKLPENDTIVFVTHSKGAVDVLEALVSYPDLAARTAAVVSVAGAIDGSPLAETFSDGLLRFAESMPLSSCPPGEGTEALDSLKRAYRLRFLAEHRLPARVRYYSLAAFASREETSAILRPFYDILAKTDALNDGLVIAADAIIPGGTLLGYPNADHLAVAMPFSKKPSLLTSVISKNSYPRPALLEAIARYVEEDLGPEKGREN
Assay: spectrophotometric pNP ester hydrolysis
Assay type: biochemical
Conditions: 0.5 mM substrate, 50 mM HEPES-K pH 8.0, 30 °C

Question: CCCCCCCC(=O)Oc1ccc([N+](=O)[O-])cc1 [pNP-octanoate] was tested. Which specific activity did it give?
Answer: MGS0156 was most active against pNP -octanoate and pNP -decanoate (C8–C10 substrates)
